Assay results as given in PubChem BioAssay AID328 (DTP/NCI, 2004).
Where “and” joins values, the source holds several entries; their conditions need not be identical. Identical values can stand only once. Inconclusive results and toxic doses are left out.

System: BDF1 mice, P388 leukemia ip, median survival T/C
Experiment: NCI In Vivo Anticancer Drug Screen. Data for tumor model P388 Leukemia (intraperitoneal) in B6D2F1 (BDF1) mice
Conditions: endpoint: median survival time, higher = longer survival
In short: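 Survival ratio, drug arm over vehicle arm, in mice with a transplanted tumour.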

[1] = dose: 8.0 mg/kg/injection, schedule: Q01DX009 (ip), vehicle: saline with Tween-80
[2] = dose: 12.0 mg/kg/injection, schedule: Q01DX009 (ip), vehicle: saline with Tween-80
[3] = dose: 12.5 mg/kg/injection, schedule: Q01DX009 (ip), vehicle: saline with Tween-80
[4] = dose: 25.0 mg/kg/injection, schedule: Q01DX009 (ip), vehicle: saline with Tween-80
[5] = dose: 50.0 mg/kg/injection, schedule: Q01DX009 (ip), vehicle: saline with Tween-80
[6] = dose: 100.0 mg/kg/injection, schedule: Q04DX003 (ip), vehicle: saline with Tween-80
[7] = dose: 200.0 mg/kg/injection, schedule: Q04DX003 (ip), vehicle: saline with Tween-80
[8] = dose: 100.0 mg/kg/injection, schedule: Q01DX009 (ip), vehicle: saline
[9] = dose: 200.0 mg/kg/injection, schedule: Q01DX009 (ip), vehicle: saline
[10] = dose: 50.0 mg/kg/injection, schedule: Q04DX003 (ip), vehicle: saline with Tween-80
[11] = dose: 100.0 mg/kg/injection, schedule: Q01DX009 (ip), vehicle: saline with Tween-80
[12] = dose: 25.0 mg/kg/injection, schedule: Q01DX009 (ip), vehicle: Klucel (hydroxypropylcellulose) (HPC)
[13] = dose: 50.0 mg/kg/injection, schedule: Q01DX009 (ip), vehicle: Klucel (hydroxypropylcellulose) (HPC)
[14] = dose: 100.0 mg/kg/injection, schedule: Q04DX003 (ip), vehicle: Klucel (hydroxypropylcellulose) (HPC)
[15] = dose: 400.0 mg/kg/injection, schedule: Q04DX003 (ip), vehicle: Klucel (hydroxypropylcellulose) (HPC)
[16] = dose: 50.0 mg/kg/injection, schedule: Q04DX003 (ip), vehicle: Klucel (hydroxypropylcellulose) (HPC)

For Nc1cc(C(=O)Nc2ccc(C3=NCCN3)cc2)ccc1C(=O)Nc1ccc(C2=NCCN2)cc1, the T/C (dose: 1.4 mg/kg/injection, schedule: Q01DX009 (ip), vehicle: saline with Tween-80) was 158 % of control, the T/C (dose: 2.2 mg/kg/injection, schedule: Q01DX009 (ip), vehicle: saline with Tween-80) was 154 % of control and the T/C (dose: 3.3 mg/kg/injection, schedule: Q01DX009 (ip), vehicle: saline with Tween-80) was 154 % of control and 200 % of control. For the same compound, the T/C (dose: 5.0 mg/kg/injection, schedule: Q01DX009 (ip), vehicle: saline with Tween-80) was 191 % of control, the T/C [1] was 230 % of control and the T/C [2] was 230 % of control. For the same compound, the T/C [3] was 230 % of control, the T/C (dose: 13.0 mg/kg/injection, schedule: Q04DX003 (ip), vehicle: saline with Tween-80) was 170 % of control and the T/C (dose: 20.0 mg/kg/injection, schedule: Q04DX003 (ip), vehicle: saline with Tween-80) was 208 % of control. The T/C [4] was 230 % of control, the T/C (dose: 30.0 mg/kg/injection, schedule: Q04DX003 (ip), vehicle: saline with Tween-80) was 250 % of control and 181 % of control and the T/C (dose: 44.0 mg/kg/injection, schedule: Q04DX003 (ip), vehicle: saline with Tween-80) was 272 % of control. The T/C [5] was 92 % of control, the T/C (dose: 66.0 mg/kg/injection, schedule: Q04DX003 (ip), vehicle: saline with Tween-80) was 229 % of control and 272 % of control and the T/C [6] was 166 % of control and 204 % of control. The T/C (dose: 150.0 mg/kg/injection, schedule: Q04DX003 (ip), vehicle: saline with Tween-80) was 100 % of control and the T/C [7] was 100 % of control.

In the case of CC1(C)N=C(N)N=C(N)N1c1cccc(CCCCOc2ccccc2)c1, the T/C [1] was 150 % of control, the T/C [2] was 150 % of control and the T/C (dose: 18.0 mg/kg/injection, schedule: Q01DX009 (ip), vehicle: saline with Tween-80) was 170 % of control.

For CC(=O)c1ccc[n+](C)c1, the T/C [8] was 100 % of control and the T/C [9] was 95 % of control.

With CC(C)(C)c1cccc(C(C)(C)C)c1 the T/C (dose: 100.0 mg/kg/injection, schedule: Q01DX001 (ip), vehicle: saline with Tween-80) was 100 % of control and the T/C (dose: 200.0 mg/kg/injection, schedule: Q01DX001 (ip), vehicle: saline with Tween-80) was 94 % of control.

CCCCNC(C)(C)C(SSSC(C)=O)c1ccco1 (stereo not drawn) was tested, and the T/C (dose: 3.12 mg/kg/injection, schedule: Q01DX009 (ip), vehicle: saline with Tween-80) was 88 % of control, the T/C (dose: 6.25 mg/kg/injection, schedule: Q01DX009 (ip), vehicle: saline with Tween-80) was 111 % of control and the T/C [3] was 102 % of control. The T/C [4] was 101 % of control and 102 % of control and the T/C [5] was 103 % of control.

With CCOC(=O)C(=O)C[n+]1cc2ccccc2cc1/C=N/O the T/C (dose: 50.0 mg/kg/injection, schedule: Q01DX001 (ip), vehicle: saline) was 100 % of control, the T/C (dose: 100.0 mg/kg/injection, schedule: Q01DX001 (ip), vehicle: saline) was 100 % of control and the T/C (dose: 200.0 mg/kg/injection, schedule: Q01DX001 (ip), vehicle: saline) was 100 % of control.

With C=CC12COC(=O)C(=C)C1C(O)C1C(=C)C(=O)OC1C2 (stereo not drawn) the T/C (dose: 3.75 mg/kg/injection, schedule: Q01DX009 (ip), vehicle: saline + alcohol) was 113 % of control and the T/C (dose: 15.0 mg/kg/injection, schedule: Q01DX009 (ip), vehicle: saline + alcohol) was 90 % of control.

In the case of N#Cc1ncc(C(Cl)(Cl)Cl)nc1Cl, the T/C [5] was 110 % of control, the T/C [10] was 105 % of control and the T/C [11] was 120 % of control. For the same compound, the T/C [6] was 115 % of control and 118 % of control and the T/C [7] was 120 % of control.

O=C1c2ccccc2C(=O)N1Cc1ccc([N+](=O)[O-])cc1 was tested, and the T/C [3] was 97 % of control, the T/C [4] was 96 % of control and the T/C [5] was 97 % of control. For the same compound, the T/C [11] was 92 % of control.

With Cc1ccc([N+](=O)[O-])cc1N=C=O the T/C (dose: 12.5 mg/kg/injection, schedule: Q01DX009 (ip), vehicle: Klucel (hydroxypropylcellulose) (HPC)) was 96 % of control, the T/C [12] was 100 % of control and the T/C [13] was 96 % of control. For the same compound, the T/C [14] was 91 % of control and the T/C [15] was 91 % of control.

CC(=O)NC1=C(N2CC2)C(=O)C(NC(C)=O)=C(N2CC2)C1=O was tested, and the T/C (dose: 0.12 mg/kg/injection, schedule: Q01DX009 (ip), vehicle: saline) was 155 % of control, the T/C (dose: 0.25 mg/kg/injection, schedule: Q01DX009 (ip), vehicle: saline) was 166 % of control and 195 % of control and the T/C (dose: 0.5 mg/kg/injection, schedule: Q01DX009 (ip), vehicle: saline) was 270 % of control and 214 % of control. The T/C (dose: 1.0 mg/kg/injection, schedule: Q01DX009 (ip), vehicle: saline) was 285 % of control and 190 % of control and the T/C (dose: 2.0 mg/kg/injection, schedule: Q01DX009 (ip), vehicle: saline) was 109 % of control.

COc1ccc(N2c3ccccc3-c3cc[nH]c(=O)c3[C@H]2O)cc1OC was tested, and the T/C (dose: 37.5 mg/kg/injection, schedule: Q01DX009 (ip), vehicle: Klucel (hydroxypropylcellulose) (HPC)) was 119 % of control, the T/C (dose: 75.0 mg/kg/injection, schedule: Q01DX006 (ip), vehicle: Klucel (hydroxypropylcellulose) (HPC)) was 114 % of control and the T/C (dose: 75.0 mg/kg/injection, schedule: Q01DX009 (ip), vehicle: Klucel (hydroxypropylcellulose) (HPC)) was 106 % of control. For the same compound, the T/C (dose: 150.0 mg/kg/injection, schedule: Q01DX009 (ip), vehicle: Klucel (hydroxypropylcellulose) (HPC)) was 163 % of control.

O=S(=O)(c1ccccc1)N1CN2CCN(C2)C1 was tested, and the T/C [5] was 107 % of control and the T/C [11] was 124 % of control.

C=CCSc1ncnc2c1ncn2C1OC(CO)C(O)C1O (stereo not drawn) was tested, and the T/C [11] was 113 % of control.

With CC1CCC(NC2=NCCO2)C(C)C1 (stereo not drawn) the T/C (dose: 12.5 mg/kg/injection, schedule: Q04DX003 (ip), vehicle: saline with Tween-80) was 95 % of control, the T/C (dose: 25.0 mg/kg/injection, schedule: Q04DX003 (ip), vehicle: saline with Tween-80) was 100 % of control and the T/C [10] was 100 % of control.

O=C(NC(=O)c1c(F)cccc1F)Nc1nc(-c2ccccc2)cs1 was tested, and the T/C [4] was 93 % of control, the T/C [5] was 100 % of control and the T/C [11] was 90 % of control.

With O=C(Nc1cccc(Cl)c1Cl)SCCSC(=O)Nc1cccc(Cl)c1Cl the T/C (dose: 12.5 mg/kg/injection, schedule: Q01DX009 (ip), vehicle: gum acacia) was 118 % of control, the T/C (dose: 25.0 mg/kg/injection, schedule: Q01DX009 (ip), vehicle: gum acacia) was 100 % of control and the T/C (dose: 50.0 mg/kg/injection, schedule: Q01DX009 (ip), vehicle: gum acacia) was 118 % of control.

COC1=C(C)C(=O)c2c(c(COC(N)=O)c3n2CC2C3N2C)C1=O (stereo not drawn) was tested, and the T/C (dose: 2.0 mg/kg/injection, schedule: Q01DX009 (ip), vehicle: saline sonified) was 120 % of control.

In the case of Cc1cccc(CSc2ncnc3nc[nH]c23)n1, the T/C [12] was 100 % of control, the T/C (dose: 25.0 mg/kg/injection, schedule: Q04DX003 (ip), vehicle: Klucel (hydroxypropylcellulose) (HPC)) was 104 % of control and the T/C [13] was 87 % of control. The T/C [16] was 100 % of control, the T/C (dose: 100.0 mg/kg/injection, schedule: Q01DX009 (ip), vehicle: Klucel (hydroxypropylcellulose) (HPC)) was 91 % of control and the T/C [14] was 92 % of control and 104 % of control.

CCOC(=O)c1c(-c2ccccc2)cn2c1OC(C)CC2(C)C (stereo not drawn) was tested, and the T/C (dose: 50.0 mg/kg/injection, schedule: Q01DX001 (ip), vehicle: saline sonified) was 100 % of control, the T/C (dose: 100.0 mg/kg/injection, schedule: Q01DX001 (ip), vehicle: saline sonified) was 100 % of control and the T/C (dose: 200.0 mg/kg/injection, schedule: Q01DX001 (ip), vehicle: saline sonified) was 95 % of control.

For O=C(O)CCCOc1ccc(Cl)cc1Cl, the T/C [8] was 100 % of control, the T/C [9] was 104 % of control and the T/C (dose: 400.0 mg/kg/injection, schedule: Q01DX009 (ip), vehicle: saline) was 95 % of control.

Cc1noc(/N=C/c2ccccc2)c1C was tested, and the T/C (dose: 100.0 mg/kg/injection, schedule: Q01DX001 (ip), vehicle: Klucel (hydroxypropylcellulose) (HPC)) was 108 % of control, the T/C [14] was 95 % of control and the T/C (dose: 200.0 mg/kg/injection, schedule: Q01DX001 (ip), vehicle: Klucel (hydroxypropylcellulose) (HPC)) was 104 % of control. For the same compound, the T/C (dose: 200.0 mg/kg/injection, schedule: Q04DX003 (ip), vehicle: Klucel (hydroxypropylcellulose) (HPC)) was 100 % of control and 104 % of control, the T/C (dose: 400.0 mg/kg/injection, schedule: Q01DX001 (ip), vehicle: Klucel (hydroxypropylcellulose) (HPC)) was 112 % of control and the T/C [15] was 91 % of control and 100 % of control.

In the case of O=C(O)c1ccccc1C(=O)Nc1cc(Cl)ccc1Cl, the T/C [16] was 91 % of control and the T/C [14] was 100 % of control.

CC(c1ccccc1)(c1ccccc1)c1ccccc1 was tested, and the T/C [5] was 101 % of control, the T/C [11] was 101 % of control and the T/C (dose: 200.0 mg/kg/injection, schedule: Q01DX009 (ip), vehicle: saline with Tween-80) was 97 % of control.
